From the NIST ThermoML archive (doi:10.1016/j.tca.2012.12.004)
Numbers after ± are expanded uncertainties.

Assay: molar heat capacity at constant pressure; xn = mol fraction of the nth substance listed
Settings: 101 kPa, Crystal, Small (less than 1 g) adiabatic calorimetry, x1 = 0.7

For `[Ba+2].[F-].[F-]` [barium difluoride] + [F][La]([F])[F], the “molar heat capacity at constant pressure” value (10 K) was 0.3566 ± 0.2 J/K/mol, the “molar heat capacity at constant pressure” value (15 K) was 1.198 ± 0.2 J/K/mol and the “molar heat capacity at constant pressure” value (20 K) was 2.757 ± 0.21 J/K/mol. The “molar heat capacity at constant pressure” value (25 K) was 4.992 ± 0.22 J/K/mol, the “molar heat capacity at constant pressure” value (30 K) was 7.683 ± 0.23 J/K/mol and the “molar heat capacity at constant pressure” value (35 K) was 10.6 ± 0.24 J/K/mol. The “molar heat capacity at constant pressure” value (40 K) was 13.58 ± 0.25 J/K/mol, the “molar heat capacity at constant pressure” value (45 K) was 16.57 ± 0.27 J/K/mol and the “molar heat capacity at constant pressure” value (50 K) was 19.51 ± 0.28 J/K/mol. The “molar heat capacity at constant pressure” value (60 K) was 25.25 ± 0.3 J/K/mol, the “molar heat capacity at constant pressure” value (70 K) was 30.71 ± 0.32 J/K/mol and the “molar heat capacity at constant pressure” value (80 K) was 35.83 ± 0.34 J/K/mol. For the same molecule, the “molar heat capacity at constant pressure” value (90 K) was 40.57 ± 0.36 J/K/mol, the “molar heat capacity at constant pressure” value (100 K) was 44.9 ± 0.38 J/K/mol and the “molar heat capacity at constant pressure” value (110 K) was 48.81 ± 0.4 J/K/mol. The “molar heat capacity at constant pressure” value (120 K) was 52.33 ± 0.41 J/K/mol, the “molar heat capacity at constant pressure” value (130 K) was 55.47 ± 0.42 J/K/mol and the “molar heat capacity at constant pressure” value (140 K) was 58.27 ± 0.43 J/K/mol. For the same molecule, the “molar heat capacity at constant pressure” value (150 K) was 60.76 ± 0.44 J/K/mol, the “molar heat capacity at constant pressure” value (160 K) was 62.98 ± 0.45 J/K/mol and the “molar heat capacity at constant pressure” value (170 K) was 64.95 ± 0.46 J/K/mol. For the same molecule, the “molar heat capacity at constant pressure” value (180 K) was 66.7 ± 0.47 J/K/mol, the “molar heat capacity at constant pressure” value (190 K) was 68.28 ± 0.47 J/K/mol and the “molar heat capacity at constant pressure” value (200 K) was 69.68 ± 0.48 J/K/mol. For the same molecule, the “molar heat capacity at constant pressure” value (210 K) was 70.94 ± 0.48 J/K/mol, the “molar heat capacity at constant pressure” value (220 K) was 72.07 ± 0.49 J/K/mol and the “molar heat capacity at constant pressure” value (230 K) was 73.09 ± 0.49 J/K/mol. For the same molecule, the “molar heat capacity at constant pressure” value (240 K) was 74.02 ± 0.5 J/K/mol, the “molar heat capacity at constant pressure” value (250 K) was 74.85 ± 0.5 J/K/mol and the “molar heat capacity at constant pressure” value (260 K) was 75.6 ± 0.5 J/K/mol. For the same molecule, the “molar heat capacity at constant pressure” value (270 K) was 76.29 ± 0.51 J/K/mol, the “molar heat capacity at constant pressure” value (280 K) was 76.91 ± 0.51 J/K/mol and the “molar heat capacity at constant pressure” value (290 K) was 77.48 ± 0.51 J/K/mol. For the same molecule, the “molar heat capacity at constant pressure” value (298.15 K) was 77.91 ± 0.51 J/K/mol, the “molar heat capacity at constant pressure” value (300 K) was 78.01 ± 0.51 J/K/mol and the “molar heat capacity at constant pressure” value (310 K) was 78.48 ± 0.51 J/K/mol. For the same molecule, the “molar heat capacity at constant pressure” value (320 K) was 78.93 ± 0.52 J/K/mol, the “molar heat capacity at constant pressure” value (330 K) was 79.33 ± 0.52 J/K/mol and the “molar heat capacity at constant pressure” value (340 K) was 79.7 ± 0.52 J/K/mol.
